Source: patent US7786083B2, “Metastin derivatives and use thereof” (Takeda Pharmaceutical Company Limited, priority 2006, dated 2010)
*1 amine or outer side, *2 acyl side, *3 side chain or, on linkers, in order; H or OH if unused. Where a SMILES comes first, the peptide text is derived from it. [ ]: non-standard residue; d: D form. Glyψ(E-CHCH)Leu = CC(C)C[C@H](/C=C/CN[*:1])C(=O)[*:2]; X5 = O=C(/C=C/[C@H](O)[C@H](Cc1ccccc1)N[*:1])[*:2]; X6 = O=C(COC[C@H](Cc1ccccc1)N[*:1])[*:2]; Arg(Me) = CNC(=N)NCCC[C@H](N)C(=O)O; Dap(CONH2) = NC(=O)NC[C@H](N)C(=O)O; Hyp = O=C(O)[C@@H]1C[C@@H](O)CN1; αMeF = C[C@](N)(Cc1ccccc1)C(=O)O; Cha = N[C@@H](CC1CCCCC1)C(=O)O

Tested on: metastin receptors
Experiment: Measurement of agonist activity by assaying changes in intracellular calcium ion level (FLIPR, Fluo-4 NW)
Type: cell-based, human
Details: specific activity of the EC50 of a test compound based on the EC50 of Metastin (45-54), metastin receptor expression CHO cells
Method in brief: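 CHO/dhfr⁻ cells stably expressing human or rat metastin receptor, seeded 3×10^4/well for 24 h, loaded with Fluo-4 NW 30 min at 37 °C in HBSS with 0.1% BSA, 20 mM HEPES pH 7.4 and 1 mM probenecid. Compound-stimulated intracellular calcium change read on FLIPR.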

Row | SMILES | Specific Activity
1 | CNC(=N)NCCC[C@H](NC(=O)[C@H](CC(C)C)NC(=O)CNC(=O)[C@H](Cc1ccccc1)NC(=O)[C@@H](NC(=O)[C@H](CC(N)=O)NC(=O)[C@@H]1C[C@@H](O)CN1C(=O)[C@@H](Cc1ccc(O)cc1)NC(C)=O)[C@@H](C)O)C(=O)N[C@@H](Cc1c[nH]c2ccccc12)C(N)=O [Compound No. 796, des(1)-Ac-[D-Tyr2,Hyp3,Thr5,Arg(Me)9,Trp10]MS10] (Ac-[dY][Hyp]NTFGL[Arg(Me)]W-NH2) | 1.2
2 | CNC(=N)NCCC[C@H](NC(=O)[C@H](CC(C)C)NC(=O)CNC(=O)[C@](C)(Cc1ccccc1)NC(=O)[C@@H](NC(=O)[C@H](CC(N)=O)NC(=O)[C@@H]1C[C@@H](O)CN1C(=O)[C@@H](Cc1ccc(O)cc1)NC(C)=O)[C@@H](C)O)C(=O)N[C@@H](Cc1c[nH]c2ccccc12)C(N)=O [Compound No. 869, des(1)-Ac-[D-Tyr2,Hyp3,Thr5,αMePhe6,Arg(Me)9,Trp10]MS10] (Ac-[dY][Hyp]NT[αMeF]GL[Arg(Me)]W-NH2) | 3.8
3 | CNC(=N)NCCC[C@H](NC(=O)[C@H](CC(C)C)NC(=O)/C=C/[C@H](O)[C@H](Cc1ccccc1)NC(=O)[C@@H](NC(=O)[C@H](CC(N)=O)NC(=O)[C@@H]1C[C@@H](O)CN1C(=O)[C@@H](Cc1ccc(O)cc1)NC(C)=O)[C@@H](C)O)C(=O)N[C@@H](Cc1c[nH]c2ccccc12)C(N)=O [Compound No. 858, des(1)-Ac-[D-Tyr2,Hyp3,Thr5,Phe6Ψ((S)CHOH—(E)CH=)Gly7,Arg(Me)9,Trp10]MS10] (Ac-[dY][Hyp]NT[X5]L[Arg(Me)]W-NH2) | 1.7
4 | CNC(=N)NCCC[C@H](NC(=O)[C@H](CC(C)C)NC(=O)[C@@H](NC(=O)[C@H](Cc1ccccc1)NC(=O)[C@@H](NC(=O)[C@H](CC(N)=O)NC(=O)[C@@H]1C[C@@H](O)CN1C(=O)[C@@H](Cc1ccc(O)cc1)NC(C)=O)[C@@H](C)O)C(C)C)C(=O)N[C@@H](Cc1c[nH]c2ccccc12)C(N)=O [Compound No. 847, des(1)-Ac-[D-Tyr2,Hyp3,Thr5,Val7,Arg(Me)9,Trp10]MS10] (Ac-[dY][Hyp]NTFVL[Arg(Me)]W-NH2) | 1.7
5 | CNC(=N)NCCC[C@H](NC(=O)[C@H](CC(C)C)NC(=O)COC[C@H](Cc1ccccc1)NC(=O)[C@@H](NC(=O)[C@H](CC(N)=O)NC(=O)[C@@H]1C[C@@H](O)CN1C(=O)[C@@H](Cc1ccc(O)cc1)NC(C)=O)[C@@H](C)O)C(=O)N[C@@H](Cc1c[nH]c2ccccc12)C(N)=O [Compound No. 834, des(1)-Ac-[D-Tyr2,Hyp3,Thr5,Phe6Ψ(CH2O)Gly7,Arg(Me)9,Trp10]MS10] (Ac-[dY][Hyp]NT[X6]L[Arg(Me)]W-NH2) | 0.5
6 | CNC(=N)NCCC[C@H](NC(=O)[C@@H](/C=C/CNC(=O)[C@H](Cc1ccccc1)NC(=O)[C@@H](NC(=O)[C@H](CNC(N)=O)NC(=O)[C@@H]1C[C@@H](O)CN1C(=O)[C@@H](Cc1ccc(O)cc1)NC(C)=O)[C@@H](C)O)CC(C)C)C(=O)N[C@@H](Cc1c[nH]c2ccccc12)C(N)=O [Compound No. 906, des(1)-Ac-[D-Tyr2,Hyp3,Alb4,Gly7Ψ((E)CH═CH)Leu8,Arg(Me)9,Trp10]MS10] (Ac-[dY][Hyp][Dap(CONH2)]TF[Glyψ(E-CHCH)Leu][Arg(Me)]W-NH2) | 0.6
7 | CNC(=N)NCCC[C@H](NC(=O)[C@H](CC(C)C)NC(=O)CNC(=O)[C@H](CC1CCCCC1)NC(=O)[C@@H](NC(=O)[C@H](CC(N)=O)NC(=O)[C@@H]1C[C@@H](O)CN1C(=O)[C@@H](Cc1ccc(O)cc1)NC(C)=O)[C@@H](C)O)C(=O)N[C@@H](Cc1c[nH]c2ccccc12)C(N)=O [Compound No. 822, des(1)-Ac-[D-Tyr2,Hyp3,Thr5,Cha6,Arg(Me)9,Trp10]MS10] (Ac-[dY][Hyp]NT[Cha]GL[Arg(Me)]W-NH2) | 0.3
